How the values were obtained:
Assay in all cases: relative viability (nuclei count vs DMSO), 5 days (fraction); higher = more cells survive
201T = test system: 201T
How it was run: (§1)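 The day after seeding in 1536-well plates, lung cancer cell lines were treated by pin tool with a single drug, or with a fixed anchor-drug dose together with five library-drug doses (not always all listed) in √10 steps. After 5 days, a combined fix-and-stain solution (final 0.05% Triton X-100, 1% formaldehyde, 1 ug/ml Hoechst) was added. Nuclei counted on 4× images gave relative viability as treated counts over vehicle counts, reported as the median of duplicate plates.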

BEN = test system: BEN
How it was run: as §1

EPLC-272H = test system: EPLC-272H
How it was run: as §1

HCC-15 = test system: HCC-15
How it was run: as §1

HCC-78 = test system: HCC-78
How it was run: as §1

LCLC-97TM1 = test system: LCLC-97TM1
How it was run: as §1

LU99A = test system: LU99A
How it was run: as §1

NCI-H1355 = test system: NCI-H1355
How it was run: as §1

NCI-H2009 = test system: NCI-H2009
How it was run: as §1

NCI-H2085 = test system: NCI-H2085
How it was run: as §1

NCI-H2126 = test system: NCI-H2126
How it was run: as §1

NCI-H2228 = test system: NCI-H2228
How it was run: as §1

NCI-H23 = test system: NCI-H23
How it was run: as §1

NCI-H2405 = test system: NCI-H2405
How it was run: as §1

NCI-H322M = test system: NCI-H322M
How it was run: as §1

NCI-H460 = test system: NCI-H460
How it was run: as §1

NCI-H647 = test system: NCI-H647
How it was run: as §1

NCI-H650 = test system: NCI-H650
How it was run: as §1

NCI-H661 = test system: NCI-H661
How it was run: as §1

NCI-H838 = test system: NCI-H838
How it was run: as §1

PC-14 = test system: PC-14
How it was run: as §1

CN1CCN(CCOc2cc(OC3CCOCC3)c3c(Nc4c(Cl)ccc5c4OCO5)ncnc3c2)CC1 [Saracatinib] + CC(C)C[C@H](NC(=O)[C@H](Cc1ccccc1)NC(=O)c1cnccn1)B(O)O [Bortezomib] (partner 0.002 µM)
relative viability (201T; first compound 0.02 µM): 1.07 | relative viability (201T; first compound 0.2 µM): 1 | relative viability (201T; first compound 0.6325 µM): 1.04 | relative viability (201T; first compound 2 µM): 0.848 | relative viability (BEN; first compound 0.02 µM): 0.928 | relative viability (BEN; first compound 0.2 µM): 0.695 | relative viability (BEN; first compound 0.6325 µM): 0.889 | relative viability (BEN; first compound 2 µM): 0.573 | relative viability (EPLC-272H; first compound 0.02 µM): 0.812 | relative viability (EPLC-272H; first compound 0.2 µM): 0.786 | relative viability (EPLC-272H; first compound 0.6325 µM): 1.2 | relative viability (EPLC-272H; first compound 2 µM): 0.932 | relative viability (HCC-15; first compound 0.02 µM): 0.969 | relative viability (HCC-15; first compound 0.2 µM): 0.986 | relative viability (HCC-15; first compound 0.6325 µM): 1.04 | relative viability (HCC-15; first compound 2 µM): 0.918 | relative viability (HCC-78; first compound 0.02 µM): 0.505 | relative viability (HCC-78; first compound 0.2 µM): 0.513 | relative viability (HCC-78; first compound 0.6325 µM): 0.583 | relative viability (HCC-78; first compound 2 µM): 0.357 | relative viability (LCLC-97TM1; first compound 0.02 µM): 0.786 | relative viability (LCLC-97TM1; first compound 0.6325 µM): 0.995 | relative viability (LCLC-97TM1; first compound 2 µM): 0.523 | relative viability (LU99A; first compound 0.02 µM): 1.1 | relative viability (LU99A; first compound 0.2 µM): 1 | relative viability (LU99A; first compound 0.6325 µM): 1.13 | relative viability (LU99A; first compound 2 µM): 0.942 | relative viability (NCI-H1355; first compound 0.02 µM): 1.18 | relative viability (NCI-H1355; first compound 0.2 µM): 1.15 | relative viability (NCI-H1355; first compound 0.6325 µM): 1.44 | relative viability (NCI-H1355; first compound 2 µM): 1.17 | relative viability (NCI-H2009; first compound 0.02 µM): 1.01 | relative viability (NCI-H2009; first compound 0.2 µM): 0.912 | relative viability (NCI-H2009; first compound 0.6325 µM): 1.03 | relative viability (NCI-H2009; first compound 2 µM): 0.747 | relative viability (NCI-H2085; first compound 0.02 µM): 1.07 | relative viability (NCI-H2085; first compound 0.2 µM): 0.91 | relative viability (NCI-H2085; first compound 0.6325 µM): 1.13 | relative viability (NCI-H2085; first compound 2 µM): 1.11 | relative viability (NCI-H2126; first compound 0.02 µM): 1.09 | relative viability (NCI-H2126; first compound 0.2 µM): 1.02 | relative viability (NCI-H2126; first compound 0.6325 µM): 1.11 | relative viability (NCI-H2126; first compound 2 µM): 0.996 | relative viability (NCI-H2228; first compound 0.02 µM): 1.05 | relative viability (NCI-H2228; first compound 0.2 µM): 0.684 | relative viability (NCI-H2228; first compound 0.6325 µM): 1.2 | relative viability (NCI-H2228; first compound 2 µM): 0.652 | relative viability (NCI-H23; first compound 0.02 µM): 1.09 | relative viability (NCI-H23; first compound 0.6325 µM): 0.95 | relative viability (NCI-H23; first compound 2 µM): 1.12 | relative viability (NCI-H2405; first compound 0.02 µM): 1.03 | relative viability (NCI-H2405; first compound 0.2 µM): 0.749 | relative viability (NCI-H2405; first compound 0.6325 µM): 0.736 | relative viability (NCI-H2405; first compound 2 µM): 0.716 | relative viability (NCI-H322M; first compound 0.02 µM): 1.23 | relative viability (NCI-H322M; first compound 0.2 µM): 1.14 | relative viability (NCI-H322M; first compound 0.6325 µM): 1.23 | relative viability (NCI-H322M; first compound 2 µM): 0.988 | relative viability (NCI-H460; first compound 0.02 µM): 1.05 | relative viability (NCI-H460; first compound 0.2 µM): 0.51 | relative viability (NCI-H460; first compound 0.6325 µM): 1.12 | relative viability (NCI-H460; first compound 2 µM): 1.03 | relative viability (NCI-H647; first compound 0.02 µM): 0.993 | relative viability (NCI-H647; first compound 0.2 µM): 0.677 | relative viability (NCI-H647; first compound 0.6325 µM): 0.757 | relative viability (NCI-H647; first compound 2 µM): 0.641 | relative viability (NCI-H650; first compound 0.02 µM): 0.925 | relative viability (NCI-H650; first compound 0.2 µM): 0.751 | relative viability (NCI-H650; first compound 0.6325 µM): 0.947 | relative viability (NCI-H650; first compound 2 µM): 0.799 | relative viability (NCI-H661; first compound 0.02 µM): 0.831 | relative viability (NCI-H661; first compound 0.2 µM): 0.849 | relative viability (NCI-H661; first compound 0.6325 µM): 0.837 | relative viability (NCI-H661; first compound 2 µM): 0.373 | relative viability (NCI-H838; first compound 0.02 µM): 0.78 | relative viability (NCI-H838; first compound 0.2 µM): 0.702 | relative viability (NCI-H838; first compound 0.6325 µM): 0.482 | relative viability (NCI-H838; first compound 2 µM): 0.431 | relative viability (PC-14; first compound 0.02 µM): 0.941 | relative viability (PC-14; first compound 0.2 µM): 0.685 | relative viability (PC-14; first compound 0.6325 µM): 0.261 | relative viability (PC-14; first compound 2 µM): 0.169

— the supplement of paper PMC10307832
